The test concerns the target T1, Kex2 (Saccharomyces cerevisiae, UniProt P13134).
T1 sequence (P13134 114-613 limits assumed): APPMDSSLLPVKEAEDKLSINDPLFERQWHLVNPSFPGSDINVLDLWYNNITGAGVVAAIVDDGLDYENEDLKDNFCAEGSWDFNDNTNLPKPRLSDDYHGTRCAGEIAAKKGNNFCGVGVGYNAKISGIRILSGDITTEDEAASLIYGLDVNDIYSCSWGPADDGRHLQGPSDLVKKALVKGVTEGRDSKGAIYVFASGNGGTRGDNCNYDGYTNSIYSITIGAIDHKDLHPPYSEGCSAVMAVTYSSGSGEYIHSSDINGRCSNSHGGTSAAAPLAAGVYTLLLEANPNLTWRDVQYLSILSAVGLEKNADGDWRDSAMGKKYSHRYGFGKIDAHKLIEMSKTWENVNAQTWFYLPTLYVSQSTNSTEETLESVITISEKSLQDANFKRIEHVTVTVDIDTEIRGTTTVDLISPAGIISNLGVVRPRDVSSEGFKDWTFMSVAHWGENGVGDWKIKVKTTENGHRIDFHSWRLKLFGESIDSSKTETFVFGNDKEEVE
The format is biochemical, S. cerevisiae. To be noted: in the absence of Mg^2+.

Regarding Abz-LDKR↓EAE-Q-EDDnp, the “kcat/Km for hydrolysis by kex2” value amounted to 353000 M⁻¹ s⁻¹. As to Abz-YKR↓EAD-Q-EDDnp, the “kcat/Km for hydrolysis by kex2” value came out at 7.939e+06 M⁻¹ s⁻¹.

Source of the values: article PMC4821188 (Biological chemistry, 2010).
